Bridge positions count the residues as written; N and C are the ends. Square brackets hold non-standard residues; d marks the D form. Peptide text beside a SMILES is read from it. * marks the point of attachment. DOTA = O=C(O)CN1CCN(CC(=O)O)CCN(CC(=O)*)CCN(CC(=O)O)CC1; Trp(1-CH2COOH) = N[C@@H](Cc1cn(CC(=O)O)c2ccccc12)C(=O)O; Hyp = O=C(O)[C@@H]1C[C@@H](O)CN1; NMeNle = CCCC[C@H](NC)C(=O)O; NMeA = CN[C@@H](C)C(=O)O
Tests used:
[1] = Ex vivo biodistribution in SCaBER xenografts; parameters: species or system NSG mice; settings: NSG, mouse, tumor, iv, 50 uCi, total radioactivity
[2] = In vivo stability of [^68Ga]Ga-DK223; parameters: species or system mice; settings: urine collected at 60 min after i.v. injection, radio-HPLC; n=3
MDAMB231 xenografts [3] = settings: NSG, mouse, in vivo, iv, 1 h
in vivo = settings: NSG, mouse, iv, total radioactivity
[4] = Ex vivo biodistribution in BFTC909 xenografts; parameters: species or system NSG mice; settings: NSG, mouse, tumor, iv, 50 uCi, total radioactivity
MDAMB231 xenografts [5] = experiment: Ex vivo biodistribution in mice with MDAMB231 xenografts; settings: NSG mice bearing MDAMB231 tumors, n=4-5
[6] = predicted residence time in human organ from mouse pharmacokinetic data
SUM149 cells = experiment: In vitro binding assay with [^68Ga]Ga-DK223; type: cell-based, human; settings: 1×10^6 cells, ~1 μCi, 45 min at 4°C
SCaBER cells = experiment: In vitro binding assay with [^68Ga]Ga-DK223; type: cell-based, human; settings: 1×10^6 cells, ~1 μCi, 45 min at 4°C
BFTC909 xenografts [7] = experiment: [^68Ga]Ga-DK223 PET-CT of BFTC909 xenografts after aPD-L1 treatment; type: in vivo, NSG mice
[8] = cited from earlier work
BFTC909 cells = experiment: [^68Ga]Ga-DK223 uptake in BFTC909 cells with and without aPD-L1 mAbs; type: cell-based, human; settings: 60 nM mAb
BFTC909 xenografts [9] = type: in vivo, NSG mice; settings: 10 mg/kg; for accessible PD-L1 levels: 120 h of treatment, tumor %ID/g as fraction of saline group; for [^68Ga]Ga-DK223 tumor uptake versus saline controls: 120 h treatment
[10] = %ID/g [^68Ga]Ga-DK223, Adrenals
[11] = %ID/g [^68Ga]Ga-DK223, Pancreas
[12] = 24 h after 10 mg/kg mAb i.v., PET 60 min after tracer

## CCCC[C@H]1C(=O)N(C)[C@@H](CCCC)C(=O)N[C@@H](CCCCNC(=O)CN2CCN(CC(=O)O)CCN(CC(=O)O)CCN(CC(=O)O)CC2)C(=O)N[C@H](C(=O)NCC(N)=O)CSCC(=O)N[C@@H](Cc2ccc(O)cc2)C(=O)N(C)[C@@H](C)C(=O)N[C@@H](CC(N)=O)C(=O)N2CCC[C@H]2C(=O)N[C@@H](Cc2c[nH]cn2)C(=O)N[C@@H](CCC(=O)O)C(=O)N2C[C@H](O)C[C@H]2C(=O)N[C@@H](Cc2c[nH]c3ccccc23)C(=O)N[C@@H](CO)C(=O)N[C@@H](Cc2cn(CC(=O)O)c3ccccc23)C(=O)N1C [[^68Ga]Ga-DK223, metal not drawn] ({CH2CO}-Y[NMeA]NPHE[Hyp]WS[Trp(1-CH2COOH)][NMeNle][NMeNle]K(DOTA)CG-NH2; thioether N-14)
[1]
  tissue uptake at 1 h: < 3 %ID/g
[2]
  in vivo stability, urine: no metabolic cleavage
MDAMB231 xenografts [3]
  %ID/g [^68Ga]Ga-DK223, Adrenals: 4.74 ± 3.64 %ID/g
  %ID/g [^68Ga]Ga-DK223, Blood: 3.05 ± 0.11 %ID/g
  %ID/g [^68Ga]Ga-DK223, Femur: 0.89 ± 0.06 %ID/g
  %ID/g [^68Ga]Ga-DK223, Heart: 0.95 ± 0.07 %ID/g
  %ID/g [^68Ga]Ga-DK223, Lung: 4.7 ± 0.42 %ID/g
  %ID/g [^68Ga]Ga-DK223, Muscle: 0.36 ± 0.04 %ID/g
  %ID/g [^68Ga]Ga-DK223, Tumor: 15.21 ± 1.43 %ID/g
MDAMB231 xenografts [3]; female
  %ID/g [^68Ga]Ga-DK223, Ovaries: 0.93 ± 0.08 %ID/g
In vivo; [10]
  tissue uptake at 0.5 h: 2.22 ± 0.19 %ID/g
  tissue uptake at 1.5 h: 0.18 ± 0.03 %ID/g
  tissue uptake at 3 h: 0.16 ± 0.11 %ID/g
In vivo; %ID/g [^68Ga]Ga-DK223, Bladder
  tissue uptake at 0.5 h: 4.09 ± 0.49 %ID/g
  tissue uptake at 1 h: 1.42 ± 0.12 %ID/g
  tissue uptake at 1.5 h: 0.78 ± 0.07 %ID/g
  tissue uptake at 3 h: 1.28 ± 0.32 %ID/g
In vivo; %ID/g [^68Ga]Ga-DK223, Blood
  tissue uptake at 0.5 h: 7.63 ± 0.87 %ID/g
  tissue uptake at 1.5 h: 2.14 ± 0.08 %ID/g
  tissue uptake at 3 h: 1.72 ± 0.04 %ID/g
In vivo; %ID/g [^68Ga]Ga-DK223, Brain
  tissue uptake at 0.5 h: 0.22 ± 0.05 %ID/g
  tissue uptake at 1.5 h: 0.05 ± 0.01 %ID/g
  tissue uptake at 3 h: 0.04 ± 0.01 %ID/g
In vivo; %ID/g [^68Ga]Ga-DK223, Femur
  tissue uptake at 0.5 h: 1.74 ± 0.14 %ID/g
  tissue uptake at 1.5 h: 0.59 ± 0.04 %ID/g
  tissue uptake at 3 h: 0.64 ± 0.07 %ID/g
In vivo; %ID/g [^68Ga]Ga-DK223, Heart
  tissue uptake at 0.5 h: 2.49 ± 0.3 %ID/g
  tissue uptake at 1.5 h: 0.73 ± 0.03 %ID/g
  tissue uptake at 3 h: 0.46 ± 0.03 %ID/g
In vivo; %ID/g [^68Ga]Ga-DK223, Liver
  tissue uptake at 0.5 h: 2.85 ± 0.41 %ID/g
  tissue uptake at 1 h: 1.31 ± 0.08 %ID/g
  tissue uptake at 1.5 h: 0.91 ± 0.11 %ID/g
  tissue uptake at 3 h: 0.82 ± 0.09 %ID/g
In vivo; %ID/g [^68Ga]Ga-DK223, Lung
  tissue uptake at 0.5 h: 11 ± 2.29 %ID/g
  tissue uptake at 1.5 h: 5.3 ± 1.68 %ID/g
  tissue uptake at 3 h: 2.98 ± 0.71 %ID/g
In vivo; %ID/g [^68Ga]Ga-DK223, Muscle
  tissue uptake at 0.5 h: 0.85 ± 0.09 %ID/g
  tissue uptake at 1.5 h: 0.17 ± 0.01 %ID/g
  tissue uptake at 3 h: 0.08 ± 0.02 %ID/g
In vivo; [11]
  tissue uptake at 0.5 h: 2.01 ± 0.54 %ID/g
  tissue uptake at 1 h: 0.45 ± 0.05 %ID/g
  tissue uptake at 1.5 h: 0.39 ± 0.01 %ID/g
  tissue uptake at 3 h: 0.24 ± 0.03 %ID/g
In vivo; %ID/g [^68Ga]Ga-DK223, Spleen
  tissue uptake at 0.5 h: 2.45 ± 0.51 %ID/g
  tissue uptake at 1 h: 1.05 ± 0.07 %ID/g
  tissue uptake at 1.5 h: 0.71 ± 0.06 %ID/g
  tissue uptake at 3 h: 0.58 ± 0.03 %ID/g
In vivo; %ID/g [^68Ga]Ga-DK223, Thymus
  tissue uptake at 0.5 h: 7.02 ± 1.06 %ID/g
  tissue uptake at 1 h: 3.53 ± 0.27 %ID/g
  tissue uptake at 1.5 h: 1.26 ± 0.47 %ID/g
  tissue uptake at 3 h: 1.52 ± 0.75 %ID/g
In vivo; %ID/g [^68Ga]Ga-DK223, Tumor
  tissue uptake at 0.5 h: 14.3 ± 1.54 %ID/g
  tissue uptake at 1.5 h: 12.2 ± 0.32 %ID/g
  tissue uptake at 3 h: 11.6 ± 0.79 %ID/g
[4]
  tissue uptake at 1 h: 21 ± 2.1 %ID/g
MDAMB231 xenografts [5]; 5 min after injection
  %ID/g [^68Ga]Ga-DK223, Kidney: 28.59 ± 2.4 %ID/g
MDAMB231 xenografts [5]; 30 min after injection
  %ID/g [^68Ga]Ga-DK223, Kidney: 24.4 ± 1.5 %ID/g
MDAMB231 xenografts [5]; 60 min after injection
  %ID/g [^68Ga]Ga-DK223, Kidney: 22.99 ± 2.01 %ID/g
MDAMB231 xenografts [5]; 90 min after injection
  %ID/g [^68Ga]Ga-DK223, Kidney: 16.23 ± 0.8 %ID/g
MDAMB231 xenografts [5]; 180 min after injection
  %ID/g [^68Ga]Ga-DK223, Kidney: 19.14 ± 1.32 %ID/g
[6]
  Residence time, Adrenals: 0.00014 h
  Residence time, Bladder: 0.00187 h
  Residence time, Blood: 0.1753 h
  Residence time, Brain: 0.00118 h
  Residence time, Femur: 0.03956 h
  Residence time, Heart: 0.0151 h
  Residence time, Kidney: 0.0337 h
  Residence time, Large Intestine (with contents): 0.00099 h
  Residence time, Liver: 0.01633 h
  Residence time, Lung: 0.03245 h
  Residence time, Muscle: 0.06168 h
  Residence time, Ovaries: 0.00011 h
  Residence time, Pancreas: 0.00052 h
  Residence time, Small Intestine (with contents): 0.00453 h
  Residence time, Spleen: 0.00129 h
  Residence time, Stomach (with contents): 0.00072 h
  Residence time, Thymus: 0.00047 h
  Residence time, Uterus: 0.00114 h
SUM149 cells
  in vitro uptake: less than 2 %IA
SCaBER cells
  in vitro uptake: less than 2 %IA

## avelumab
BFTC909 xenografts [7]; [12]
  [^68Ga]Ga-DK223 uptake in tumors (PET) after mAb treatment: significantly lower uptake
BFTC909 xenografts [7]; 72 h after 10 mg/kg mAb i.v., avelumab compared with durvalumab
  [^68Ga]Ga-DK223 uptake in tumors (PET) after mAb treatment: increased
[8]
  half-life: 6.1 days
BFTC909 cells
  [^68Ga]Ga-DK223 uptake in BFTC909 cells in presence of mAb: less than 1%
BFTC909 xenografts [9]; 24 h treatment, P<0.0001
  reduction of [^68Ga]Ga-DK223 tumor uptake versus saline: more than 80%
BFTC909 xenografts [9]
  accessible PD-L1 levels: increase in accessible PD-L1 levels
  [^68Ga]Ga-DK223 tumor uptake versus saline controls: no significant differences

## durvalumab
BFTC909 xenografts [7]; [12]
  [^68Ga]Ga-DK223 uptake in tumors (PET) after mAb treatment: significantly lower uptake
[8]
  half-life: 18 days
BFTC909 cells
  [^68Ga]Ga-DK223 uptake in BFTC909 cells in presence of mAb: less than 1%
BFTC909 xenografts [9]
  accessible PD-L1 levels: less than 10%
  [^68Ga]Ga-DK223 tumor uptake versus saline controls: continued reduction in accessible target levels

From PMC9890130 (Clinical cancer research : an official journal of the …, 2023)
